Tested on: SLP-76
Experiment: SLP-76 tyrosine phosphorylation in Jurkat cells, immunoprecipitation and western blot
Type: cell-based, human
Settings: Jurkat cells treated 16 h, up to 1 μM
Protocol: Jurkat cells were washed in PBS containing Ca^2+ and Mg^2+ (Biological Industries, Beit Haemek), preheated to 37° C. for 15 min, and were either mock stimulated with PBS, or were stimulated for 1 minute with C305 (1:500). Cells were then collected and lysed at a concentration of 2×10^7 cells/ml in cold lysis buffer containing 1% NP-40, 10 mM Tris (pH 7.8), 150 mM NaCl, 1 mM phenylmethylsulfonyl fluoride (PMSF), 2 μg/ml pepstatin A, 1 μg/ml leupeptin, 10 mM sodium pyrophosphate, 0.4 mM EDTA, 0.4 mM sodium orthovanadate, and 50 mM NaF, 50 mM beta-glycerol phosphate pH 7.5 and 20 mM sodium pyrophosphate pH 7.5. After 20 min at 4° C., the lysates were cleared by centrifugation in a microfuge (Eppendorf, centrifuge 5427R) at 16,000×g for 10 min at 4° C. The supernatants were used directly for immunoprecipitation.
Western blots were prepared on nitrocellulose using standard techniques. Membranes were blocked in TBST buffer (10 mM Tris-HCl, pH 7.4 (TBS), 0.2% Tween 20, 170 mM NaCl) containing 5% low-fat milk, then probed overnight with the appropriate primary antibody. […]
Jurkat cells were treated with 2 for 16 h, and SLP-76 phosphorylation was measured by immunoprecipitation of SLP-76 protein followed by western blotting with an antibody to the phosphorylated tyrosines of the protein (FIG. 6A). […]

COc1cc(-c2nc(Nc3ccc(C)cc3)c3ccccc3n2)cc(OC)c1OC [Compound 2, N-p-tolyl-2-(3,4,5-trimethoxyphenyl)quinazolin-4-amine]
tyrosine phosphorylation of SLP-76: reduced but not abolished
